Source: patent publication EP0012729A1, “Therapeutic compositions containing as active compound a substituted acetic acid or its salt” ("IBIS" ISTITUTO BIOCHIMICO SPERIMENTALE S.p.A., priority 1978, dated 1980)

Assays:
[1] = test system: Wistar rats; experiment: Choleretic activity in the rat, bile fistula method; assay type: in vivo; settings: for ml of bile flow ± s.e.: second series
From the text: It is known that the primary effect of a choleretic agent is to increase the bile flow and the quantity of solid substances excreted with the bile. A good choleretic must provide this effect in a sufficiently intense and prolonged manner. In addition, as in the case of all drugs, it must have low acute toxicity and good general tolerability, but in particular must be free from toxic effects on the organ on which it is required to act, i.e. the liver, whether this is in a normal or pathological state. The analysis of the new product in comparison with the best known products for the same therapeutic use has therefore been focused on these aspects. The choleretic activity of the new product has been determined in the rat by using the bile fistula method. Wistar rats of both sexes and having a weight of between 180 and 240 g were used.
The animals, which were kept fasting for 12 hours but with free access to water, were narcotised by ethyl urethane in a dose of 1 g/kg by intra peritoneal or intramuscular injection.
After binding the animals to the retention bed, a median laparatomy was carried out, and when the bile duct had been isolated a cannula needle was inserted into it. A polythene tube was then inserted into those ani mals which were to receive the products intraduodenally, after which a su ture was carried out on the abdominal wall, and the bile was allowed to discharge for 30 minutes after inserting the cannula in the bile duct, so as to allow the discharge to become normal. The bile was then collec ted for one hour.
Having determined the volume of bile discharged during this first hour of collection (base volume), the products under examination were administered at the predetermined doses and by the predetermined methods. The bile excreted by the individual animals was then collected over each hour for a further six hours.
During the experiments, the animals were kept at ambient temperature of about 22°C, and at regular intervals of two hours received 10 ml/kg of physiological solution s.c.
The liquids were administered at a temperature of 37°C.
The bile flow and cholesterol excretion were determined on those bile fractions excreted by the animals over each hour starting from the base hour until the end of the experiment
The dry residue (R.So) was determined on the bile fraction excreted during the base hour and on the total bile fractions excreted during the sub sequent hours. For practical reasons, the determination of the dry residue and of the cholesterol (carried out by the Sperry & Webb method) were carried out on the pool of bile excreted by the entire group of animals subjected to the same treatment instead of on the bile fractions excreted by the individual animals (which was sometimes insufficient for determining the cholesterol).
In compiling the graphs, the differences between the choleresis in the treated animals and that in the controls was calculated over the considered time intervals, and expressed as a percentage of the base choleresis. For this calculation, the following formula was used: [formula] where Cn and C' represent the choleresis (in ml/kg/h for the bile flow, and in mg/kg/h for the dry residue) determined over the considered time interval for the group of treated animals and the group of controls respectively. Cb and C'b represent the base choleresis in the group of treated animals and group of controls respectively.
This index was calculated as the time for halving the maximum choleresis increase recorded under their effect.

[2] = Acute toxicity (DL50) in mus musculus; settings: in vivo
From the text: The DL50 for the α-methyl-α-(3,4-dihydro-1-naphtyl)acetic acid (1.620) determined in the mus musculus had the following values: • DL50 by oral administration = 1663 (1451-1905) mg/kg • DL50 by i.^p. administration = 1383 (1226-1559) mg/kg

[3] = Acute toxicity (DL50) in the rat; settings: in vivo
From the text: The determination in the rat gave the following values: • DL50 by oral administration = 1720 (1520-1921) mg/kg • DL50 by i.p. administration = 1339 (1270-1744) mg/kg

[4] = test system: rat; experiment: Prolonged administration for 180 consecutive days, tolerability; assay type: in vivo; settings: 50 mg/kg/die for 180 consecutive days
[5] = ip, read-out: DL50 by i.p. administration
[6] = oral, read-out: DL50 by oral administration

In the case of CC(C(=O)O)C1=CCCc2ccccc21 (stereo not drawn) [1.620, α-methyl-α-(3,4-dihydro-1-naphthyl)-acetic acid], the Flow ([1]; 25 mg/kg i.d., 0 (base hour)) is reported as 2,66±0,16 ml/kg/h, the Flow ([1]; 25 mg/kg i.d., 1 h) is reported as 4,24±0,25 ml/kg/h and the Flow ([1]; 25 mg/kg i.d., 2 h) is reported as 3,21±0,10 ml/kg/h. For the same compound, the Flow ([1]; 25 mg/kg i.d., 3 h) was 2,89±0,10 ml/kg/h, the Flow ([1]; 25 mg/kg i.d., 4 h) was 2,44±0,15 ml/kg/h and the Flow ([1]; 25 mg/kg i.d., 5 h) was 2,20±0,14 ml/kg/h. For the same compound, the Flow ([1]; 25 mg/kg i.d., 6 h) was 1,68±0,05 ml/kg/h, the Flow ([1]; 25 mg/kg p.o., 0 (base hour)) was 3,05±0,33 ml/kg/h and the Flow ([1]; 25 mg/kg p.o., 1h) was 3,89±0,47 ml/kg/h. The Flow ([1]; 25 mg/kg p.o., 2h) was 3,13±0,24 ml/kg/h, the Flow ([1]; 25 mg/kg p.o., 3h) was 2,84±0,21 ml/kg/h and the Flow ([1]; 25 mg/kg p.o., 4h) was 2,35±0,19 ml/kg/h. For the same compound, the Flow ([1]; 25 mg/kg p.o., 5h) was 2,05±0,21 ml/kg/h, the Flow ([1]; 25 mg/kg p.o., 6h) was 1,87±0,39 ml/kg/h and the Flow ([1]; 50 mg/kg i.d., 0 (base hour)) was 2,04±0,11 ml/kg/h. The Flow ([1]; 50 mg/kg i.d., 1 h) was 3,90±0,28 ml/kg/h, the Flow ([1]; 50 mg/kg i.d., 2 h) was 3,57±0,16 ml/kg/h and the Flow ([1]; 50 mg/kg i.d., 3 h) was 2,69±0,09 ml/kg/h. For the same compound, the Flow ([1]; 50 mg/kg i.d., 4 h) was 2,20±0,07 ml/kg/h, the Flow ([1]; 50 mg/kg i.d., 5 h) was 2,00±0,10 ml/kg/h and the Flow ([1]; 50 mg/kg i.d., 6 h) was 1,63±0,08 ml/kg/h. The Flow ([1]; 50 mg/kg p.o., 0 (base hour)) was 2,76±0,09 ml/kg/h, the Flow ([1]; 50 mg/kg p.o., 1h) was 4,90±0,16 ml/kg/h and the Flow ([1]; 50 mg/kg p.o., 2h) was 3,74±0,13 ml/kg/h. The Flow ([1]; 50 mg/kg p.o., 3h) was 3,34±0,13 ml/kg/h, the Flow ([1]; 50 mg/kg p.o., 4h) was 2,73±0,07 ml/kg/h and the Flow ([1]; 50 mg/kg p.o., 5h) was 2,60±0,08 ml/kg/h. The Flow ([1]; 50 mg/kg p.o., 6h) was 2,25±0,09 ml/kg/h, the Flow ([1]; 100 mg/kg i.d., 0 (base hour)) was 2,53±0,09 ml/kg/h and the Flow ([1]; 100 mg/kg i.d., 1 h) was 6,61±0,27 ml/kg/h. For the same compound, the Flow ([1]; 100 mg/kg i.d., 2 h) was 5,94±0,23 ml/kg/h, the Flow ([1]; 100 mg/kg i.d., 3 h) was 4,12±0,14 ml/kg/h and the Flow ([1]; 100 mg/kg i.d., 4 h) was 3,23±0,07 ml/kg/h. The Flow ([1]; 100 mg/kg i.d., 5 h) was 2,74±0,06 ml/kg/h, the Flow ([1]; 100 mg/kg i.d., 6 h) was 2,23±0,06 ml/kg/h and the Flow ([1]; 100 mg/kg p.o., 0 (base hour)) was 2,40±0,23 ml/kg/h. The Flow ([1]; 100 mg/kg p.o., 1h) was 4,44±0,28 ml/kg/h, the Flow ([1]; 100 mg/kg p.o., 2h) was 4,95±0,39 ml/kg/h and the Flow ([1]; 100 mg/kg p.o., 3h) was 4,10±0,32 ml/kg/h. The Flow ([1]; 100 mg/kg p.o., 4h) was 3,10±0,31 ml/kg/h, the Flow ([1]; 100 mg/kg p.o., 5h) was 2,79±0,23 ml/kg/h and the Flow ([1]; 100 mg/kg p.o., 6h) was 2,33±0.25 ml/kg/h. For the same compound, the “Peak choleresis time of appearance” value ([1]; 200 mg/kg p.o. (dose given for 1620 only)) was 2nd hour, the “Peak choleresis % increase” value ([1]; 200 mg/kg p.o. (dose given for 1620 only), increase over controls as percentage of base choleresis) was 135% and the Duration index ([1]; 200 mg/kg p.o. (dose given for 1620 only), time for halving the maximum choleresis increase) was 240'. For the same compound, the Flow ([1]; 200 mg/kg p.o., 0 (base hour)) was 2,46±0,12 ml/kg/h, the Flow ([1]; 200 mg/kg p.o., 1h) was 5,53±0,30 ml/kg/h and the Flow ([1]; 200 mg/kg p.o., 2h) was 5,78±0,29 ml/kg/h. The Flow ([1]; 200 mg/kg p.o., 3h) was 5,02±0,34 ml/kg/h, the Flow ([1]; 200 mg/kg p.o., 4h) was 4,77±0,57 ml/kg/h and the Flow ([1]; 200 mg/kg p.o., 5h) was 4,19±0,25 ml/kg/h. The Flow ([1]; 200 mg/kg p.o., 6h) was 3,39±0,14 ml/kg/h, the “ml of bile flow ± s.e.” value ([1]; oral by gastric probe 25 mg/kg, 0 (base values)) was 2,6±0,20 ml and the “ml of bile flow ± s.e.” value ([1]; oral by gastric probe 25 mg/kg, 1 h) was 3,2±0,14 ml. The “ml of bile flow ± s.e.” value ([1]; oral by gastric probe 25 mg/kg, 2 h) was 2,7±0,10 ml, the “ml of bile flow ± s.e.” value ([1]; oral by gastric probe 25 mg/kg, 3 h) was 2,6±0,21 ml and the “ml of bile flow ± s.e.” value ([1]; oral by gastric probe 25 mg/kg, 4 h) was 1,9±0,11 ml. For the same compound, the “ml of bile flow ± s.e.” value ([1]; oral by gastric probe 25 mg/kg, 5 h) was 1,6±0,20 ml, the “ml of bile flow ± s.e.” value ([1]; oral by gastric probe 25 mg/kg, 6 h) was 1,6±0,21 ml and the “ml of bile flow ± s.e.” value ([1]; oral by gastric probe 50 mg/kg, 0 (base values)) was 2,8±0,19 ml. For the same compound, the “ml of bile flow ± s.e.” value ([1]; oral by gastric probe 50 mg/kg, 1 h) was 3,7±0,31 ml, the “ml of bile flow ± s.e.” value ([1]; oral by gastric probe 50 mg/kg, 2 h) was 3,4±0,22 ml and the “ml of bile flow ± s.e.” value ([1]; oral by gastric probe 50 mg/kg, 3 h) was 3,2±0,19 ml. For the same compound, the “ml of bile flow ± s.e.” value ([1]; oral by gastric probe 50 mg/kg, 4 h) was 3,0±0,18 ml, the “ml of bile flow ± s.e.” value ([1]; oral by gastric probe 50 mg/kg, 5 h) was 2,8±0,14 ml and the “ml of bile flow ± s.e.” value ([1]; oral by gastric probe 50 mg/kg, 6 h) was 2,2±0,18 ml. The “ml of bile flow ± s.e.” value ([1]; oral by gastric probe 100 mg/kg, 0 (base values)) was 2,5±0,16 ml, the “ml of bile flow ± s.e.” value ([1]; oral by gastric probe 100 mg/kg, 1 h) was 4,8±0,26 ml and the “ml of bile flow ± s.e.” value ([1]; oral by gastric probe 100 mg/kg, 2 h) was 3,7±0,31 ml. For the same compound, the “ml of bile flow ± s.e.” value ([1]; oral by gastric probe 100 mg/kg, 3 h) was 3,5±0,20 ml, the “ml of bile flow ± s.e.” value ([1]; oral by gastric probe 100 mg/kg, 4 h) was 3,2±0,32 ml and the “ml of bile flow ± s.e.” value ([1]; oral by gastric probe 100 mg/kg, 5 h) was 2,9±0,22 ml. The “ml of bile flow ± s.e.” value ([1]; oral by gastric probe 100 mg/kg, 6 h) was 2,7±0,23 ml, the LD50 [2, 5] was 1380 mg/kg and the LD50 [2, 6] was 1660 mg/kg. The LD50 [3, 5] was 1340 mg/kg, the LD50 [3, 6] was 1720 mg/kg and the “Tolerability on prolonged administration” value [4] was “well tolerated”.
